Measurements taken from publication PMC11676667, “Pharmacokinetics of Oral Cannabinoid Δ8-Tetrahydrocannabivarin and Its Main Metabolites in Healthy Participants” (Pharmaceuticals, 2024).

Legend:
CB2 receptors = tested on: CB2 receptors; set-up: method as in PMID 21470208; details: in vitro; cited from earlier work
[1] = Plasma pharmacokinetics after single oral dose of Δ8-THCV in MCT oil (LC-MS/MS, non-compartmental analysis); format: in vivo, human; set-up: Clast (last quantifiable concentration): unit not given here; details: for Clast (last quantifiable concentration) / tlast (time to last quantifiable concentration) / concentration at 0.5 h / concentration at 1 h / concentration at 2 h / concentration at 4 h / concentration at 6 h / concentration at 8 h: plasma; for plasma concentration: Predose; for concentration at 0.5 h / concentration at 1 h / concentration at 2 h / concentration at 4 h / concentration at 6 h / concentration at 8 h: human, oral
Method in brief: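 Healthy participants received single oral Δ8-THCV in MCT oil (50 mg/mL; 12.5-200 mg, or placebo) after a high-fat, high-calorie breakfast, with ≥1-week washout. Plasma (K2EDTA) sampled predose and 0.5-8 h post-dose, assayed by validated LC-MS/MS including metabolites; PK by non-compartmental analysis, sub-LLOQ values set to 0.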

[2] = 12.5 mg single oral Δ8-THCV in MCT oil, Mean (±SD)
[3] = 12.5 mg single oral Δ8-THCV in MCT oil, Median (Range)
[4] = 25 mg single oral Δ8-THCV in MCT oil, Mean (±SD)
[5] = 25 mg single oral Δ8-THCV in MCT oil, Median (Range)
[6] = 50 mg single oral Δ8-THCV in MCT oil, Mean (±SD)
[7] = 50 mg single oral Δ8-THCV in MCT oil, Median (Range)
[8] = 100 mg single oral Δ8-THCV in MCT oil, Mean (±SD)
[9] = 100 mg single oral Δ8-THCV in MCT oil, Median (Range)
[10] = 200 mg single oral Δ8-THCV in MCT oil, Mean (±SD)
[11] = 200 mg single oral Δ8-THCV in MCT oil, Median (Range)
[12] = 12.5 mg, 12.5 mg Δ8-THCV dose, Mean (SD, %CV)
[13] = 12.5 mg, 12.5 mg Δ8-THCV dose, Median (IQ Range)
[14] = 25 mg, 25 mg Δ8-THCV dose, Mean (SD, %CV)
[15] = 25 mg, 25 mg Δ8-THCV dose, Median (IQ Range)
[16] = 50 mg, 50 mg Δ8-THCV dose, Mean (SD, %CV)
[17] = 50 mg, 50 mg Δ8-THCV dose, Median (IQ Range)

SMILES: CCCc1cc(O)c2c(c1)OC(C)(C)[C@@H]1CC=C(C)C[C@@H]21 [Δ8-THCV, Δ8-tetrahydrocannabivarin]
- CB2 receptor activation (CB2 receptors): activate CB2 receptors
- Clast (last quantifiable concentration) [1, 2]: 0.9 (±0.3)
- tlast (time to last quantifiable concentration) [1, 2]: 5.3 (±2.3)
- Clast (last quantifiable concentration) [1, 3]: 0.7 (0.6–1.5)
- tlast (time to last quantifiable concentration) [1, 3]: 5 (2–8)
- Clast (last quantifiable concentration) [1, 4]: 1.1 (±0.4)
- tlast (time to last quantifiable concentration) [1, 4]: 6.3 (±1.9)
- Clast (last quantifiable concentration) [1, 5]: 1 (0.5–1.8)
- tlast (time to last quantifiable concentration) [1, 5]: 7 (4–8)
- Clast (last quantifiable concentration) [1, 6]: 2.3 (±1.5)
- tlast (time to last quantifiable concentration) [1, 6]: 7.9 (±0.5)
- Clast (last quantifiable concentration) [1, 7]: 2.2 (0.6–5.5)
- tlast (time to last quantifiable concentration) [1, 7]: 8 (6–8)
- Clast (last quantifiable concentration) [1, 8]: 4.1 (±3.1)
- tlast (time to last quantifiable concentration) [1, 8]: 8 (±0)
- Clast (last quantifiable concentration) [1, 9]: 3.1 (0.8–9.9)
- tlast (time to last quantifiable concentration) [1, 9]: 8 (8–8)
- Clast (last quantifiable concentration) [1, 10]: 21.2 (±23.2)
- tlast (time to last quantifiable concentration) [1, 10]: 8 (±0)
- Clast (last quantifiable concentration) [1, 11]: 13.4 (1.5–87.6)
- tlast (time to last quantifiable concentration) [1, 11]: 8 (8–8)
- plasma concentration ([1]; 12.5 mg Δ8-THCV dose, Mean (SD, %CV)): 0 (±0, --) ng/mL
- plasma concentration ([1]; 12.5 mg Δ8-THCV dose, Median (IQ Range)): 0 (0–0) ng/mL
- plasma concentration ([1]; 25 mg Δ8-THCV dose, Mean (SD, %CV)): 0 (±0, --) ng/mL
- plasma concentration ([1]; 25 mg Δ8-THCV dose, Median (IQ Range)): 0 (0–0) ng/mL
- plasma concentration ([1]; 50 mg Δ8-THCV dose, Mean (SD, %CV)): 0 (±0, --) ng/mL
- plasma concentration ([1]; 50 mg Δ8-THCV dose, Median (IQ Range)): 0 (0–0) ng/mL
- plasma concentration ([1]; 100 mg Δ8-THCV dose, Mean (SD, %CV)): 0 (±0, --) ng/mL
- plasma concentration ([1]; 100 mg Δ8-THCV dose, Median (IQ Range)): 0 (0–0) ng/mL
- plasma concentration ([1]; 200 mg Δ8-THCV dose, Mean (SD, %CV)): 0 (±0, --) ng/mL
- plasma concentration ([1]; 200 mg Δ8-THCV dose, Median (IQ Range)): 0 (0–0) ng/mL
- median AUClast ratio Δ8-THCV-COOH/Δ8-THCV/11-OH-Δ8-THCV ([1]; after the 200 mg dose, Δ8-THCV = 1): 1
- concentration at 0.5 h [1, 12]: 0 ng/mL
- concentration at 0.5 h [1, 13]: 0 ng/mL
- concentration at 1 h [1, 12]: 0.1 ng/mL
- concentration at 1 h [1, 13]: 0 ng/mL
- concentration at 2 h [1, 12]: 0.4 ng/mL
- concentration at 2 h [1, 13]: 0 ng/mL
- concentration at 4 h [1, 12]: 0.7 ng/mL
- concentration at 4 h [1, 13]: 0.6 ng/mL
- concentration at 6 h [1, 12]: 0.5 ng/mL
- concentration at 6 h [1, 13]: 0 ng/mL
- concentration at 8 h [1, 12]: 0.2 ng/mL
- concentration at 8 h [1, 13]: 0 ng/mL
- concentration at 0.5 h [1, 14]: 0 ng/mL
- concentration at 0.5 h [1, 15]: 0 ng/mL
- concentration at 1 h [1, 14]: 0.3 ng/mL
- concentration at 1 h [1, 15]: 0 ng/mL
- concentration at 2 h [1, 14]: 1.4 ng/mL
- concentration at 2 h [1, 15]: 0.3 ng/mL
- concentration at 4 h [1, 14]: 1.8 ng/mL
- concentration at 4 h [1, 15]: 1.5 ng/mL
- concentration at 6 h [1, 14]: 0.9 ng/mL
- concentration at 6 h [1, 15]: 0.7 ng/mL
- concentration at 8 h [1, 14]: 0.4 ng/mL
- concentration at 8 h [1, 15]: 0.3 ng/mL
- concentration at 0.5 h [1, 16]: 0.1 ng/mL
- concentration at 0.5 h [1, 17]: 0 ng/mL
- concentration at 1 h [1, 16]: 0.5 ng/mL
- concentration at 1 h [1, 17]: 0 ng/mL
- concentration at 2 h [1, 16]: 2.6 ng/mL
- concentration at 2 h [1, 17]: 0 ng/mL
- concentration at 4 h [1, 16]: 4.3 ng/mL
- concentration at 4 h [1, 17]: 2.4 ng/mL
- concentration at 6 h [1, 16]: 6.1 ng/mL
- concentration at 6 h [1, 17]: 2.8 ng/mL
- concentration at 8 h [1, 16]: 2.2 ng/mL
- concentration at 8 h [1, 17]: 2.2 ng/mL
